These results are taken from BindingDB's records for doi:10.3109/14756366.2011.637200 (Kirklareli University, 2013).

Targets include Carbonic anhydrase 2 (Homo sapiens, UniProt P00918); Carbonic anhydrase 6 (Homo sapiens, UniProt P23280); Carbonic anhydrase 1 (Homo sapiens, UniProt P00915).
Common to all, as to assay: CA Inhibition Assay
What all share (details): pH 7.5; 25 °C

Sequence of Carbonic anhydrase 6 (P23280 whole entry): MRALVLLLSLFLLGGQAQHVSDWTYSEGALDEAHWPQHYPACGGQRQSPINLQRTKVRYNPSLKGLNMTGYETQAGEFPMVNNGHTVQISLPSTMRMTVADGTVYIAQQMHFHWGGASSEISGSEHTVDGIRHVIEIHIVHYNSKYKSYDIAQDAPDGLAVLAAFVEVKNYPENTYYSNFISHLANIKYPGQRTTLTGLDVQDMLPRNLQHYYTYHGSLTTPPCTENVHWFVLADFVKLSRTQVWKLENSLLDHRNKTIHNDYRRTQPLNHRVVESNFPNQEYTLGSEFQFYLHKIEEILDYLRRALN
Sequence of Carbonic anhydrase 1 (P00915 whole entry): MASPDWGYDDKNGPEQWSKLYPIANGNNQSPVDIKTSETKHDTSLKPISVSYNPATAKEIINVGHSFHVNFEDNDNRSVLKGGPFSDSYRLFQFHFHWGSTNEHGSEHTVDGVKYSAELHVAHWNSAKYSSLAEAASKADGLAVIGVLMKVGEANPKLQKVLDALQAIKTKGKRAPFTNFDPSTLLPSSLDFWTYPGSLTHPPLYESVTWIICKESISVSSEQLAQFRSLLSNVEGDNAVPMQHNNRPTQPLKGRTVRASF

The term Ki denotes the equilibrium dissociation constant of an inhibitor or competing ligand from its target. For `Cc1c(CCO)sc[n+]1Cc1ccccc1` [CA inhibitor, 2], the Ki was 0.105 µM on Carbonic anhydrase 2, 0.128 µM on Carbonic anhydrase 6 and 1.15 µM on Carbonic anhydrase 1.
Take `Cc1c(CCO)sc[n+]1C` [CA inhibitor, 1]: the inhibition constant Ki at Carbonic anhydrase 2 stood at 0.784 µM; on Carbonic anhydrase 6, 0.593 µM; on Carbonic anhydrase 1, 2.27 µM.
For `Cc1ncc(C[n+]2csc(CCO)c2C)c(N)n1` [Vitamin B 1] the same measures were 0.085 µM, 0.062 µM and 0.38 µM.
